For this experiment, the target named is T1, cholesteryl ester transfer protein (CETP) (Homo sapiens, UniProt P11597).
T1 construct: the source of CETP was human lipoprotein-deprived serum (LPDS); from tissue; host or cells: human lipoprotein-deprived serum (LPDS)
T1 sequence (P11597 18-493): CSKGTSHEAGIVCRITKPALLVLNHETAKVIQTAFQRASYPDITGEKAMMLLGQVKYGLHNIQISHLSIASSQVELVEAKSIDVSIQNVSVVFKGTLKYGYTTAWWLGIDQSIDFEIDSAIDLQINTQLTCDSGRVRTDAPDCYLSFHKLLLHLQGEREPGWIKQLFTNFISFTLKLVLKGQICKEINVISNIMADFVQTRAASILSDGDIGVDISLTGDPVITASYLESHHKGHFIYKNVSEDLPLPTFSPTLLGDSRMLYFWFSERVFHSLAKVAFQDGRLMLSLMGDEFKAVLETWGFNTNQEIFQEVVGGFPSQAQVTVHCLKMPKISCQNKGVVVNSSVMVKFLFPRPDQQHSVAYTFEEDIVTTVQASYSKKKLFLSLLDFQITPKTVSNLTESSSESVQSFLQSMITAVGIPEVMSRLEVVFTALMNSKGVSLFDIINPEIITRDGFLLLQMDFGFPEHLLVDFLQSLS
The experiment is described as follows: CETP activity SPA assay in the presence of plasma (source of CETP: human lipoprotein-deprived serum, LPDS). The format is biochemical. The following applies: CETP from human lipoprotein-deprived serum (LPDS); transfer of radiolabeled cholesteryl ester from HDL donor to biotin-labeled LDL acceptor particles. On the procedure:
Activity of CETP inhibitors was determined using a buffer assay system. Partially purified CETP transferred radiolabeled cholesteryl ester from HDL donor particles to biotin-labeled LDL acceptor particles. The reaction was stopped by addition of streptavidin-coupled scintillation proximity assay (SPA) beads. These beads captured the biotinylated acceptor particles and transferred radioactivity was measured. The assay system was purchased and performed according to manufacturer's recommendations (Amersham Biosciences). Inhibitory activity of compounds was determined as percentage of positive control activity containing CETP together with donor and acceptor particles. Serial dilution of compounds was performed in order to determine the IC50 values.
Activity of the compounds was subsequently measured in the presence of plasma using the same assay as described above except that the source of CETP was human lipoprotein-deprived serum (LPDS). Inhibitory activity of compounds was determined as percentage of positive control activity containing all the assay components except compound. Serial dilution of compounds was performed in order to determine the IC50 values.
Turning to `CC(C)(C)c1ccc(CN(CCc2ccc(Cl)c(Cl)c2)C(=O)c2cnccc2Cl)cc1` [Compound B3, N-(4-tert-Butyl-benzyl)-4-chloro-N-[2-(3,4-dichloro-phenyl)-ethyl]-nicotinamide], the IC50 (usually the midpoint of a concentration-inhibition curve) was found to be 66.8 µM.

Turning to `O=C(c1cc(Cl)cc(Cl)c1)N(CCc1ccc(Cl)cc1)Cc1ccc(C(F)(C(F)(F)F)C(F)(F)F)cc1` [Compound B104, 3,5-Dichloro-N-[2-(4-chloro-phenyl)-ethyl]-N-[4-(1,2,2,2-tetrafluoro-1-trifluoromethyl-ethyl)-benzyl]-benzamide], the IC50 was found to be 1.25 µM.

In the case of `CCC(C)(C)c1ccc(CN(CCc2ccc(Cl)cc2)C(=O)c2cc(Cl)cc(Cl)c2)cc1` [Compound B108, 3,5-Dichloro-N-[2-(4-chloro-phenyl)-ethyl]-N-[4-(1,1-dimethyl-propyl)-benzyl]-benzamide], the IC50 is 0.409 µM.

Source of the values: patent US7745477B2, “Heteroaryl and benzyl amide compounds” (Hoffman-La Roche Inc., priority 2006, dated 2010).
